Where “and” joins values, the source holds several entries; their conditions need not be identical. Equal values may be shown once. Toxic doses and inconclusive results are not listed.

In PubChem BioAssay AID330 (DTP/NCI, 2004) one finds T/C data, which are given here for 22 molecules.

This experiment concerns P388 leukemia ip, CD2F1 mice, survival T/C. Description: NCI In Vivo Anticancer Drug Screen. Data for tumor model P388 Leukemia (intraperitoneal) in CD2F1 (CDF1) mice. The conditions noted are these: endpoint: median survival time, higher = longer survival. The method, boiled down:
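Mice carrying the transplanted tumor received test compound or vehicle. Survival was recorded in each group, and the value is the treated-group measurement divided by that of the vehicle-treated control group.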

Setting [1] is: dose: 60.0 mg/kg/injection, schedule: Q01DX005 (ip), vehicle: Klucel (hydroxypropylcellulose) (HPC).
Setting [2] is: dose: 120.0 mg/kg/injection, schedule: Q01DX005 (ip), vehicle: Klucel (hydroxypropylcellulose) (HPC).
Where [3] appears, read: dose: 240.0 mg/kg/injection, schedule: Q01DX005 (ip), vehicle: Klucel (hydroxypropylcellulose) (HPC).
Where [4] appears, read: dose: 100.0 mg/kg/injection, schedule: Q04DX002 (ip), vehicle: saline with Tween-80.
The mark [5] stands for this setting: dose: 200.0 mg/kg/injection, schedule: Q04DX002 (ip), vehicle: saline with Tween-80.
Setting [6] is: dose: 400.0 mg/kg/injection, schedule: Q04DX002 (ip), vehicle: saline with Tween-80.
Where [7] appears, read: dose: 60.0 mg/kg/injection, schedule: Q01DX005 (ip), vehicle: saline with Tween-80.
Setting [8] is: dose: 120.0 mg/kg/injection, schedule: Q01DX005 (ip), vehicle: saline with Tween-80.
Setting [9] is: dose: 240.0 mg/kg/injection, schedule: Q01DX005 (ip), vehicle: saline with Tween-80.

Consider `Cc1ccc(S(=O)(=O)NC(=O)N(C)NC(=O)C(=O)NCc2ccco2)cc1`, for which the T/C runs as follows: (dose: 50.0 mg/kg/injection, schedule: Q01DX009 (ip), vehicle: saline with Tween-80) 103 % of control; (dose: 100.0 mg/kg/injection, schedule: Q01DX009 (ip), vehicle: saline with Tween-80) 103 % of control; (dose: 200.0 mg/kg/injection, schedule: Q01DX009 (ip), vehicle: saline with Tween-80) 99 % of control.

With `Oc1c2ccccc2cc2cnc3ccccc3c12`, the T/C runs as follows: under setting [1], 102 % of control; under setting [2], 109 % of control; under setting [3], 111 % of control.

For `CC(=O)NS(=O)(=O)c1ccc(N=Cc2c3ccccc3nc3cc(Cl)ccc23)cc1`, the T/C is 101 % of control under setting [4], 93 % of control under setting [5] and 101 % of control under setting [6].

Turning to `CCN(CC)CCSc1cc(C)c2ccc(N)nc2n1`, the T/C reads like this: under setting [1], 100 % of control; under setting [2], 106 % of control.

Regarding `Cc1ccc(N=NC2Sc3nc4ccccc4n3C2=O)cc1` (centres undefined), the T/C is 101 % of control under setting [1], 97 % of control under setting [2] and 88 % of control under setting [3].

As for `FC(F)(F)c1ccccc1N=Nc1c(-c2ccccc2)nn(C(=S)S)c1-c1ccccc1`, the T/C was 93 % of control under setting [4], 91 % of control under setting [5] and 100 % of control under setting [6].

On to `COc1ccc(/C=N/N2CN(C(C)C(=O)O)P(Nc3ncccn3)N=C2N)cc1OC` (centres undefined), for which the T/C runs as follows: (dose: 60.0 mg/kg/injection, schedule: Q01DX005 (ip), vehicle: saline) 104 % of control; (dose: 120.0 mg/kg/injection, schedule: Q01DX005 (ip), vehicle: saline) 103 % of control; (dose: 240.0 mg/kg/injection, schedule: Q01DX005 (ip), vehicle: saline) 108 % of control.

As to `CCN1C(NN)=NS(=O)(=O)c2ccccc21`, the T/C reads like this: under setting [7], 103 % of control; under setting [8], 106 % of control; under setting [9], 94 % of control.

In the case of `COc1ccc2c(=O)cc[nH]c2c1OC`, the T/C was 100 % of control (dose: 50.0 mg/kg/injection, schedule: Q01DX005 (ip), vehicle: saline with Tween-80); 94 % of control (dose: 100.0 mg/kg/injection, schedule: Q01DX005 (ip), vehicle: saline with Tween-80); 94 % of control (dose: 200.0 mg/kg/injection, schedule: Q01DX005 (ip), vehicle: saline with Tween-80).

On to `C/C(=C\CCC(C)C1CCC2(C)C3=C(CCC12C)C1(C)CCC(O)C(C)(C)C1CC3)C(=O)O` (centres undefined), for which the T/C by setting is: (dose: 12.5 mg/kg/injection, schedule: Q01DX005 (ip), vehicle: DMSO) 103 % of control; (dose: 25.0 mg/kg/injection, schedule: Q01DX005 (ip), vehicle: DMSO) 101 % of control; (dose: 50.0 mg/kg/injection, schedule: Q01DX005 (ip), vehicle: DMSO) 88 % of control; (dose: 100.0 mg/kg/injection, schedule: Q01DX005 (ip), vehicle: DMSO) 91 % of control.

Take `Cc1nc(N)nc2ccccc12`: the T/C (dose: 15.0 mg/kg/injection, schedule: Q01DX005 (ip), vehicle: Klucel (hydroxypropylcellulose) (HPC)) was 100 % of control; the T/C (dose: 30.0 mg/kg/injection, schedule: Q01DX005 (ip), vehicle: Klucel (hydroxypropylcellulose) (HPC)) is 100 % of control; the T/C under setting [1] was 99 % of control.

In the case of `CCCCC(NC(=O)OCc1ccccc1)C(=O)NC(Cc1c[nH]c2ccccc12)C(=O)O` (centres undefined), the T/C was 95 % of control (dose: 50.0 mg/kg/injection, schedule: Q01DX005 (ip), vehicle: Klucel (hydroxypropylcellulose) (HPC)); 101 % of control (dose: 100.0 mg/kg/injection, schedule: Q01DX005 (ip), vehicle: Klucel (hydroxypropylcellulose) (HPC)); 92 % of control (dose: 200.0 mg/kg/injection, schedule: Q01DX005 (ip), vehicle: Klucel (hydroxypropylcellulose) (HPC)).

Turning to `CN(C)CCN(C)CCc1ccccn1`, the T/C is, setting by setting: (dose: 100.0 mg/kg/injection, schedule: Q01DX001 (ip), vehicle: saline) 109 % of control; (dose: 200.0 mg/kg/injection, schedule: Q01DX001 (ip), vehicle: saline) 102 % of control; (dose: 400.0 mg/kg/injection, schedule: Q01DX001 (ip), vehicle: saline) 105 % of control.

For `CN(C)c1ccc(/C=C/c2ccncc2)cc1`, the T/C is, setting by setting: (dose: 1.56 mg/kg/injection, schedule: Q01DX009 (ip), vehicle: saline with Tween-80) 104 % of control and 106 % of control; (dose: 3.13 mg/kg/injection, schedule: Q01DX009 (ip), vehicle: saline with Tween-80) 104 % of control and 113 % of control; (dose: 6.25 mg/kg/injection, schedule: Q01DX009 (ip), vehicle: saline with Tween-80) 102 % of control and 94 % of control.

For `CCCCCCCCCCNCCSSc1ccccc1`, the T/C by setting is: (dose: 6.25 mg/kg/injection, schedule: Q01DX005 (ip), vehicle: Klucel (hydroxypropylcellulose) (HPC)) 95 % of control; (dose: 12.5 mg/kg/injection, schedule: Q01DX005 (ip), vehicle: Klucel (hydroxypropylcellulose) (HPC)) 100 % of control; (dose: 25.0 mg/kg/injection, schedule: Q01DX005 (ip), vehicle: Klucel (hydroxypropylcellulose) (HPC)) 102 % of control.

Consider `COc1ccc([N+](=O)[O-])cc1C[S+](C)C`, for which the T/C was 108 % of control (dose: 6.25 mg/kg/injection, schedule: Q01DX009 (ip), vehicle: Klucel (hydroxypropylcellulose) (HPC)); 107 % of control (dose: 12.5 mg/kg/injection, schedule: Q01DX009 (ip), vehicle: Klucel (hydroxypropylcellulose) (HPC)); 112 % of control (dose: 25.0 mg/kg/injection, schedule: Q01DX009 (ip), vehicle: Klucel (hydroxypropylcellulose) (HPC)).

For `Cc1ccc([N+](=O)[O-])cc1NC(=O)NNC(=O)CNC(=O)Nc1cccc(C(F)(F)F)c1`, the T/C was 95 % of control under setting [7], 96 % of control under setting [8] and 100 % of control under setting [9].

As for `CC1CC(C)CC(C)C(O)/C(C#N)=C/C=C/CC(C2CCCC2C(=O)O)OC(=O)CC(O)C(C)C1` (centres undefined), the T/C (dose: 0.5 mg/kg/injection, schedule: Q01DX009 (ip), vehicle: Klucel (hydroxypropylcellulose) (HPC)) is 163 % of control and 169 % of control; the T/C (dose: 0.78 mg/kg/injection, schedule: Q01DX009 (ip), vehicle: Klucel (hydroxypropylcellulose) (HPC)) is 150 % of control; the T/C (dose: 1.0 mg/kg/injection, schedule: Q01DX009 (ip), vehicle: Klucel (hydroxypropylcellulose) (HPC)) is 151 % of control and 152 % of control; the T/C (dose: 1.56 mg/kg/injection, schedule: Q01DX009 (ip), vehicle: Klucel (hydroxypropylcellulose) (HPC)) is 151 % of control; the T/C (dose: 3.13 mg/kg/injection, schedule: Q01DX009 (ip), vehicle: Klucel (hydroxypropylcellulose) (HPC)) is 153 % of control.

Regarding `Cn1c(=O)c2nc(-c3ccccc3)nnc2n(C)c1=O`, the T/C is 102 % of control (dose: 100.0 mg/kg/injection, schedule: Q04DX003 (ip), vehicle: Klucel (hydroxypropylcellulose) (HPC)); 103 % of control (dose: 200.0 mg/kg/injection, schedule: Q04DX003 (ip), vehicle: Klucel (hydroxypropylcellulose) (HPC)); 115 % of control (dose: 400.0 mg/kg/injection, schedule: Q04DX003 (ip), vehicle: Klucel (hydroxypropylcellulose) (HPC)).

On to `O=C1CSC(=S)N1N1C(=O)CSC1=S`, for which the T/C runs as follows: (dose: 50.0 mg/kg/injection, schedule: Q01DX009 (ip), vehicle: Klucel (hydroxypropylcellulose) (HPC)) 107 % of control; (dose: 100.0 mg/kg/injection, schedule: Q01DX009 (ip), vehicle: Klucel (hydroxypropylcellulose) (HPC)) 102 % of control; (dose: 200.0 mg/kg/injection, schedule: Q01DX009 (ip), vehicle: Klucel (hydroxypropylcellulose) (HPC)) 96 % of control.

Regarding `CCCCCCCCCCCCC1(O)OC(=O)C(C)=C1C` (centres undefined), the T/C reads like this: (dose: 12.5 mg/kg/injection, schedule: Q04DX003 (ip), vehicle: saline with Tween-80) 108 % of control; (dose: 25.0 mg/kg/injection, schedule: Q04DX003 (ip), vehicle: saline with Tween-80) 102 % of control; (dose: 50.0 mg/kg/injection, schedule: Q04DX003 (ip), vehicle: saline with Tween-80) 106 % of control.

Take `C=C1C(O)C2(O)OCC34C(CC5C(C)=CC(=O)C(O)C5(C)C23)OC(=O)C(OC(=O)C/C=C/CCCCCCCC)C14` (centres undefined): the T/C was 151 % of control (dose: 2.0 mg/kg/injection, schedule: Q01DX005 (ip), vehicle: saline + alcohol); 151 % of control and 156 % of control (dose: 4.0 mg/kg/injection, schedule: Q01DX005 (ip), vehicle: saline + alcohol); 198 % of control (dose: 8.0 mg/kg/injection, schedule: Q01DX005 (ip), vehicle: saline + alcohol); 205 % of control (dose: 16.0 mg/kg/injection, schedule: Q01DX005 (ip), vehicle: saline + alcohol).
